Test results as given in paper PMC10787068, “Targeting the Mitochondrial Chaperone TRAP1 Alleviates Vascular Pathologies in Ischemic Retinopathy” (Advanced Science, 2023).
“Also recorded” adds a separate entry of the source.

Key:
MIO‐M1 cells = assay: Cytoplasmic calcium (Fluo‐4 AM) in MIO‐M1 cells; type: cell-based, human; details: Fluo‐4 AM‐labeled MIO‐M1 cells under hypoxia; MitoQ 6 h, thapsigargin 30 min
Method: Figure 5 TRAP1 inhibition induces mPTP opening, mitochondrial calcium discharge, and calpain‐1 activation. A) Visualization of cytoplasmic calcium. Fluo‐4 AM‐labeled MIO‐M1 cells were incubated with the TRAP1 inhibitors gamitrinib and MitoQ^[ [32], [41] ^] for 6 h or thapsigargin for 30 min under hypoxia, and analyzed by confocal microscopy. Scale bars, 10 µm and 2 µm (inset). […] MIO‐M1 cells were treated with a TRAP1 inhibitor, 3 µM gamitrinib or 0.5 µM MitoQ, for 6 h under hypoxia (n = 4). Enzyme activity was measured using a fluorogenic calpain substrate as described in the Experimental Section. C) Restored HIF1α expression upon CypD inhibition. MIO‐M1 cells were incubated with control or CypD‐targeting siRNAs, treated with the TRAP1 inhibitor MitoQ for 6 h under hypoxia, harvested, and analyzed by western blotting. Black and red arrows indicate pro and autolyzed forms of calpain‐1, respectively. […] MIO‐M1 cells were incubated with TRAP1‐targeting siRNAs for 48 h, exposed to hypoxia for 6 h, harvested, and analyzed by qPCR (n = 4). […] Cells were then analyzed by flow cytometry to detect cytoplasmic calcium. […] MIO‐M1 cells were incubated with TRAP1 inhibitors, 3 µM gamitrinib, and 0.5 µM MitoQ, and a cell‐permeable calcium chelator, BAPTA (10 µM), for 6 h as indicated under hypoxia and analyzed by western blotting. […] Data information: Data are expressed as mean ± SEM. […]

OIR mice = assay: Oxygen‐induced retinopathy (OIR) mouse model, retinal vasculature (CD31 whole‐mount); type: in vivo
Method: Figure 7 Normalized retinal vascularization upon topical application of TRAP1 inhibitors. A) HIF1α degradation induced by TRAP1 inhibitors. MIO‐M1 cells were incubated with various concentrations of TRAP1 inhibitors as indicated for 6 h under hypoxia and analyzed by western blotting. B) Quantification of HIF1α protein degradation. The HIF1α band intensities in western blot data obtained as in (A) were analyzed and compared. The data are mean ± SEM from four independent experiments. C) Vascular structure of P17 OIR mouse retinas after topical drug application. Vehicle and 2 mM TRAP1 inhibitors were topically administered to the left and right eyes, respectively, of OIR mice at P12 once per day for 5 days. At P17, mice were sacrificed and analyzed by whole‐mount staining with an anti‐CD31 antibody and confocal microscopy. Scale bar, 500 µm. D) Quantification of avascular areas and neovascular tuft. Retinal images collected as in (C) were quantitatively analyzed (n = 5 mice/group). Data information: Data are expressed as mean ± SEM. Student t‐test, ^*** P < 0.001; ^* […].
To induce OIR (Figure 1A), mouse pups were exposed to 75% oxygen at postnatal day 7 (P7) until P12 together with their mothers in a hyperoxic chamber (InVivo Cabinet Model 15; Coy Laboratory; Grass Lake, MI, USA). Hyperoxia‐exposed pups were returned to room air at P12 with nursing mothers until P17. At P17, mice were sacrificed, and eyes were enucleated.
For intravitreal injection, MitoQ was injected into the vitreous cavity using a Nanoliter 2000 microinjector (World Precision Instruments; Sarasota, FL, USA) fitted with glass capillary pipettes under anesthesia. In total, 1 µl MitoQ (0.1 mg/ml) was delivered into the right eye of an OIR mouse once at P12. The contralateral eye was injected with vehicle (0.1% DMSO prepared in distilled water) as a control. […]
Fixed eyes were dissected to isolate retinas under a microscope. […] Fluorescence images were acquired using an Axio Zoom fluorescence microscope (Zeiss; Oberkochen, Germany) or a LSM780 or LSM980 confocal microscope (Zeiss). […]

[1] = Eye irritation test with MCTT HCE (OECD test guideline 492); type: cell-based, human; details: human; 3D culture MCTT HCE, TRAP1 inhibitors at 2 mM, WST-1 assay, n = 4, mean ± SEM; read-out: Percentage viability (%)
Method: (§1) An eye irritation test was performed using a 3D human corneal epithelial (HCE) model, called MCTT HCE (KeraSkin; Biosolution, Seoul, Republic of Korea), for OECD test guideline 492, following the manufacturer's instructions. In brief, HCE tissues were incubated overnight in medium provided by the supplier. Thereafter, 2 mM MitoQ, SB‐U014, and SB‐U015 were applied to the upper epithelial surface of HCE tissues and incubated for 10 min. After removing the drugs by washing the tissues with PBS, the tissues were further incubated for 16 h, and then subjected to the WST‐1 assay for viability assessment and fixed in 4% PFA for histological analysis. […]
(§2) their cytotoxic activities were analyzed in four independent experiments by trypan blue staining. The calculated IC50 values are presented in the normal cell cytotoxicity column in Table 1. […] A 3D culture of human corneal epithelium (MCTT HCE) was incubated with 2 mM TRAP1 inhibitors and analyzed by H&E staining.
(§3) The culture thickness (n = 5) was measured and analyzed (Table S1). […] After topical application of 2 mM MitoQ, SB-U014, or SB-U015 once daily for 6 days, the mouse cornea was harvested and analyzed by H&E staining. […]
(§4) A 3D culture of human corneal epithelium (MCTT HCE) was incubated with 2 mM TRAP1 inhibitors, and the percentage viability was analyzed by the WST-1 assay (n = 4). Absorbance was measured with a microplate reader. […]

[2] = system: 3D human corneal epithelial (HCE) model, MCTT HCE; assay: as above; type: cell-based; details: 3D culture MCTT HCE, TRAP1 inhibitors at 2 mM, H&E staining images, n = 5, mean ± SEM
Method: as §1, §2, §3, §4

COC1=C(OC)C(=O)C(CCCCCCCCCC[P+](c2ccccc2)(c2ccccc2)c2ccccc2)=C(C)C1=O [MitoQ, mitoquinone]
cytoplasmic calcium (MIO‐M1 cells): Modestly elevated | avascular and neovascular tuft areas in OIR mice (OIR mice; intravitreal injection, 1 µl of 0.1 mg/ml once at P12, analysed at P17, n = 5 mice/group): significantly reduced; also recorded: dramatically reduced | avascular and neovascular tuft areas in OIR mice (OIR mice; topical, 2 mM once per day for 5 days from P12, analysed at P17, n = 5 mice/group): reduced | avascular and neovascular tuft areas in OIR mice (OIR mice; topical, 10 μl of 1 mM three times daily from P12 to P17, n = 6 mice/group): reduced; also recorded: potent activity | viability at 10 min, 2 mM [1]: 63.47 ± 0.23% | Thickness (μm) [2]: 53.43 ± 2.79 μm
